Patent US20240368150A1 (Hoffmann-La Roche Inc., priority 2021, published 2024)
Read-outs that look alike come from different tables or passages of the source.

Assays:
primary human T-cells [1] = assay: Proliferation assay after 5 days (CellTiter-Glo, CD3 stimulation; PBS counter screen); format: cell-based; details: Homo sapiens, T-cell, 120 h, CD3 stimulation; for Emax: 5 days, normalized to reference compound A1 as stimulator control = 100%, DMSO neutral control, read-out: Emax proliferation (% activation); for EC50: primary human T-cells, CellTiter-Glo after 5 days, EC50 of fitted sigmoidal curve, read-out: Tcell Proliferation CD3 EC50
Experimental: Compounds are then added (see next section) to medium only plates.
Cells are assessed for proliferation 5 days later by measuring […] using CellTiterGlo (Promega).
After 5 days, for detection of ATP which is directly proportional to the number of cells present per well, the CellTiter-Glo® 2.0 Reagent is used. After visual control for toxicity or precipitations of the tested compounds, the plates are equilibrated to room temperature for 45 minutes. CellTiter-Glo® 2.0 Reagent is equilibrated to room temperature as well. After equilibration, an equal amount of CellTiter-Glo reagent is added to the cells (80 μl/well) with an electronic multichannel pipette. Plates are placed on a rocking platform for 15 minutes at room temperature. After incubation, the bottom of the plates is sealed with backing tape. Luminescence is measured with PHERAstar FSX (interval time 0.5 sec, gain 3000, focal height 15 mm) and exported as CSV file for analysis in Genedata screener.
Compounds which activate unstimulated cells (see IL2 measurements) or compounds which negatively affected viability were flagged.

primary human T-cells [2] = test system: primary human T-cells

Structure (SMILES)	Emax (primary human T-cells [1])	EC50 (primary human T-cells [1])	EC50 (primary human T-cells [2])
N[C@H]1CS(=O)(=O)c2ccc(-c3nnc(N4CCOC5(CC5)C4)o3)cc2N(Cc2ccc(Cl)cc2)C1=O [Example 411, (3R)-3-amino-5-[(4-chlorophenyl)methyl]-7-[5-(4-oxa-7-azaspiro[2.5]octan-7-yl)-1,3,4-oxadiazol-2-yl]-1,1-dioxo-2,3-dihydro-1λ^6,5-benzothiazepin-4-one]	78%	454 nM	> 10000 nM
CC(C)(C)c1nnc(-c2cc3c(cc2F)S(=O)(=O)C[C@H](N)C(=O)N3Cc2ccc(F)cc2)o1 [Example 231, (3R)-3-amino-7-(5-tert-butyl-1,3,4-oxadiazol-2-yl)-8-fluoro-5-[(4-fluorophenyl)methyl]-1,1-dioxo-2,3-dihydro-1\6,5-benzothiazepin-4-one]	114%	257 nM	295 nM
CC(C)(C)c1nnc(-c2cc3c(cc2F)S(=O)(=O)C[C@H](N)C(=O)N3Cc2ccc(OC3CCOC3)cc2)o1 (stereo partly drawn) [Example 221, (3R)-3-amino-7-(5-tert-butyl-1,3,4-oxadiazol-2-yl)-8-fluoro-1,1-dioxo-5-[(4-tetrahydrofuran-3-yloxyphenyl)methyl]-2,3-dihydro-1λ^6,5-benzothiazepin-4-one]	107%	255 nM	382 nM
CC(C)(c1nnc(-c2cc3c(cc2F)S(=O)(=O)C[C@H](N)C(=O)N3Cc2ccc(Cl)cc2)o1)N1CCCC1 [Example 128, (3R)-3-amino-5-[(4-chlorophenyl)methyl]-8-fluoro-7-[5-(1-methyl-1-pyrrolidin-1-yl-ethyl)-1,3,4-oxadiazol-2-yl]-1,1-dioxo-2,3-dihydro-1λ^6,5-benzothiazepin-4-one]	99%	534 nM	1240 nM
Cc1ccc(-c2nnc(-c3cc4c(cc3F)S(=O)(=O)C[C@H](N)C(=O)N4Cc3ccc(Cl)cc3)o2)nc1 [Example 129, (3R)-3-amino-5-[(4-chlorophenyl)methyl]-8-fluoro-7-[5-(5-methyl-2-pyridyl)-1,3,4-oxadiazol-2-yl]-1,1-dioxo-2,3-dihydro-1λ^6,5-benzothiazepin-4-one]	106%	1420 nM	1900 nM
N[C@H]1CS(=O)(=O)c2cc(F)c(-c3nnc(C4CN(CCO)CC(F)(F)C4)o3)cc2N(Cc2ccc(Cl)cc2)C1=O (stereo partly drawn) [Example 152, (3R)-3-amino-5-[(4-chlorophenyl)methyl]-7-[5-[5,5-difluoro-1-(2-hydroxyethyl)-3-piperidyl]-1,3,4-oxadiazol-2-yl]-8-fluoro-1,1-dioxo-2,3-dihydro-1λ^6,5-benzothiazepin-4-one]	78%	549 nM	477 nM
COC(=O)N1CC(c2nnc(-c3cc4c(cc3F)S(=O)(=O)C[C@H](N)C(=O)N4Cc3ccc(Cl)cc3)o2)C2(CC2)C1 (stereo partly drawn) [Example 177, methyl 7-[5-[(3R)-3-amino-5-[(4-chlorophenyl)methyl]-8-fluoro-1,1,4-trioxo-2,3-dihydro-1λ^6,5-benzothiazepin-7-yl]-1,3,4-oxadiazol-2-yl]-5-azaspiro[2.4]heptane-5-carboxylate]	68%	788 nM	1440 nM
Cc1ccc(-c2nnc(-c3cc4c(cc3F)S(=O)(=O)C[C@H](N)C(=O)N4Cc3ccc(Cl)cc3)o2)cc1 [Example 106, (3R)-3-amino-5-[(4-chlorophenyl)methyl]-8-fluoro-1,1-dioxo-7-[5-(p-tolyl)-1,3,4-oxadiazol-2-yl]-2,3-dihydro-1λ^6,5-benzothiazepin-4-one]	111%	254 nM	784 nM
N[C@H]1CS(=O)(=O)c2cc(F)c(-c3noc(N4CCNC(C(F)(F)F)C4)n3)cc2N(Cc2ccc(Cl)cc2)C1=O (stereo partly drawn) [Example 198, (3R)-3-amino-5-[(4-chlorophenyl)methyl]-8-fluoro-1,1-dioxo-7-[5-[3-(trifluoromethyl)piperazin-1-yl]-1,2,4-oxadiazol-3-yl]-2,3-dihydro-1λ^6,5-benzothiazepin-4-one]	112%	332 nM	562 nM
CCc1cnn(-c2cc3c(cc2F)S(=O)(=O)C[C@H](N)C(=O)N3Cc2ccc(Cl)cc2)c1 [Example 284, (3R)-3-amino-5-[(4-chlorophenyl)methyl]-7-(4-ethylpyrazol-1-yl)-8-fluoro-1,1-dioxo-2,3-dihydro-1λ^6,5-benzothiazepin-4-one]	30%	5490 nM	> 20000 nM
CC(=O)N1CCC2CC2(c2nnc(-c3cc4c(cc3F)S(=O)(=O)C[C@H](N)C(=O)N4Cc3ccc(Cl)cc3)o2)C1 (stereo partly drawn) [Example 180, (3R)-7-[5-(3-acetyl-3-azabicyclo[4.1.0]heptan-1-yl)-1,3,4-oxadiazol-2-yl]-3-amino-5-[(4-chlorophenyl)methyl]-8-fluoro-1,1-dioxo-2,3-dihydro-1λ^6,5-benzothiazepin-4-one]	103%	5710 nM	2380 nM
CC1(c2nnc(-c3cc4c(cc3F)S(=O)(=O)C[C@H](N)C(=O)N4Cc3ccc(Cl)cc3)o2)CC1 [Example 113, (3R)-3-amino-5-[(4-chlorophenyl)methyl]-8-fluoro-7-[5-(1-methylcyclopropyl)-1,3,4-oxadiazol-2-yl]-1,1-dioxo-2,3-dihydro-1λ^6,5-benzothiazepin-4-one]	106%	107 nM	100 nM
C#CCC(C)(C)c1nnc(-c2cc3c(cc2F)S(=O)(=O)C[C@H](N)C(=O)N3Cc2ccc(C3(C(F)(F)F)N=N3)cc2)o1 [Example 359, (3R)-3-amino-7-[5-(1,1-dimethylbut-3-ynyl)-1,3,4-oxadiazol-2-yl]-8-fluoro-1,1-dioxo-5-[[4-[3-(trifluoromethyl)diazirin-3-yl]phenyl]methyl]-2,3-dihydro-1λ^6,5-benzothiazepin-4-one]	115%	81.7 nM	208 nM
CN(C)C(=O)c1nnc(-c2cc3c(cc2F)S(=O)(=O)C[C@H](N)C(=O)N3Cc2ccc(Cl)cc2)o1 [Example 87, N,N-dimethyl-5-[(3R)-3-amino-5-[(4-chlorophenyl)methyl]-8-fluoro-1,1,4-trioxo-2,3-dihydro-1λ^6,5-benzothiazepin-7-yl]-1,3,4-oxadiazole-2-carboxamide]	82%	2740 nM	1530 nM
N[C@H]1CS(=O)(=O)c2cc(F)c(-c3noc(N4CCOC5CC54)n3)cc2N(Cc2ccc(Cl)cc2)C1=O (stereo partly drawn) [Example 192, (3R)-3-amino-5-[(4-chlorophenyl)methyl]-8-fluoro-7-[5-(2-oxa-5-azabicyclo[4.1.0]heptan-5-yl)-1,2,4-oxadiazol-3-yl]-1,1-dioxo-2,3-dihydro-1λ^6,5-benzothiazepin-4-one]	110%	100 nM	125 nM
N[C@H]1CS(=O)(=O)c2cc(F)c(-c3noc(NC4CCC4)n3)cc2N(Cc2ccc(Cl)cc2)C1=O [Example 195, (3R)-3-amino-5-[(4-chlorophenyl)methyl]-7-[5-(cyclobutylamino)-1,2,4-oxadiazol-3-yl]-8-fluoro-1,1-dioxo-2,3-dihydro-1λ^6,5-benzothiazepin-4-one]	108%	106 nM	167 nM
CC1(C)CN(c2nnc(-c3ccc4c(c3)N(Cc3ccc(Cl)cc3)C(=O)[C@@H](N)CS4(=O)=O)o2)CCO1 [Example 395, (3R)-3-amino-5-[(4-chlorophenyl)methyl]-7-[5-(2,2-dimethylmorpholin-4-yl)-1,3,4-oxadiazol-2-yl]-1,1-dioxo-2,3-dihydro-1λ^6,5-benzothiazepin-4-one]	88%	517 nM	1120 nM
N[C@H]1CS(=O)(=O)c2ccc(-c3nnc(C4(N)CCOCC4)o3)cc2N(Cc2ccc(OC(F)(F)F)cc2)C1=O [Example 418, (3R)-3-amino-7-[5-(4-aminotetrahydropyran-4-yl)-1,3,4-oxadiazol-2-yl]-1,1-dioxo-5-[[4-(trifluoromethoxy)phenyl]methyl]-2,3-dihydro-1λ^6,5-benzothiazepin-4-one]	52%	9500 nM	5740 nM
N[C@H]1CS(=O)(=O)c2cc(F)c(-c3noc(C(F)(F)C(F)(F)F)n3)cc2N(Cc2ccc(Cl)cc2)C1=O [Example 326, (3R)-3-amino-5-[(4-chlorophenyl)methyl]-8-fluoro-1,1-dioxo-7-[5-(1,1,2,2,2-pentafluoroethyl)-1,2,4-oxadiazol-3-yl]-2,3-dihydro-1λ^6,5-benzothiazepin-4-one]	129%	908 nM	703 nM
CC(C)Oc1ccc(CN2C(=O)[C@@H](N)CS(=O)(=O)c3cc(F)c(-c4noc(C5CN(C)CC(F)(F)C5)n4)cc32)cn1 (stereo partly drawn) [Example 347, (3R)-3-amino-7-[5-(5,5-difluoro-1-methyl-3-piperidyl)-1,2,4-oxadiazol-3-yl]-8-fluoro-5-[(6-isopropoxy-3-pyridyl)methyl]-1,1-dioxo-2,3-dihydro-1λ^6,5-benzothiazepin-4-one]	151%	977 nM	3500 nM
N[C@H]1CS(=O)(=O)c2cc(F)c(-c3nnc(NC45CC(C4)C5)o3)cc2N(Cc2ccc(Cl)cc2)C1=O [Example 501, (3R)-3-amino-7-[5-(1-bicyclo[1.1.1]pentanylamino)-1,3,4-oxadiazol-2-yl]-5-[(4-chlorophenyl)methyl]-8-fluoro-1,1-dioxo-2,3-dihydro-1λ^6.5-benzothiazepin-4-one]	92%	473 nM	3120 nM
